Laboratory results: US10123994B2, “Heterocyclic derivative having AMPK-activating activity” (SHIONOGI & CO., LTD., priority 2014, dated 2018)

Target: T1, Human AMPK α2β2γ1 (Homo sapiens, UniProt O43741+P54619+P54646)
T1 construct: The full length cDNAs of human AMPK β2 (NM_005399.3) and human AMPK α2 (NM_006252.3); The full length cDNAs of human AMPK β2 (NM_005399.3); the full length cDNA of human AMPK γ1 (NM_002733.3); 6xHis (N); made in house; host or cells: Escherichia coli BL21 CodonPlus (DE3)-RIL (AMPK); BL21 Star (DE3) (CaMKK2)
T1 sequence (P54646 whole entry): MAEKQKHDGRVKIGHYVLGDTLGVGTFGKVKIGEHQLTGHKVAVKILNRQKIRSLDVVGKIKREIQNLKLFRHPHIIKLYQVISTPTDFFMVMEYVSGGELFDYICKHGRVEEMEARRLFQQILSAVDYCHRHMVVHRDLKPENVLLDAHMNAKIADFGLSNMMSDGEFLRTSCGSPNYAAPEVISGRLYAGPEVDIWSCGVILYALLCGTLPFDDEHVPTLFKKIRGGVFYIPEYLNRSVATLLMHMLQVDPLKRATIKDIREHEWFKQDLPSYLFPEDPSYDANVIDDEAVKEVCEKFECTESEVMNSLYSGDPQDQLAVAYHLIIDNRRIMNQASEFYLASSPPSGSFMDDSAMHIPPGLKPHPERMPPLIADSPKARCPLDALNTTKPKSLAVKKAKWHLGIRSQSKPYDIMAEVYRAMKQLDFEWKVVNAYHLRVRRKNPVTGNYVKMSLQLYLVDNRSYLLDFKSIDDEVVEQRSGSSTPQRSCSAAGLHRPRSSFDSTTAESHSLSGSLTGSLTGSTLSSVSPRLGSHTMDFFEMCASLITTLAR
T1 sequence (O43741 whole entry): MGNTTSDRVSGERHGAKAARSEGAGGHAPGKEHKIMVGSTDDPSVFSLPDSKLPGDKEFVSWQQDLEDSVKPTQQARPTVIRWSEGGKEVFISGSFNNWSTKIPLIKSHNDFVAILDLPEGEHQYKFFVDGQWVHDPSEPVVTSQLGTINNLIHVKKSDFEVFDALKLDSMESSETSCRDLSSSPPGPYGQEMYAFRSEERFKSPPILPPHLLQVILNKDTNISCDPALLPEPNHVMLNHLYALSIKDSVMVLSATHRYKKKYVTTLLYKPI
T1 sequence (P54619 whole entry): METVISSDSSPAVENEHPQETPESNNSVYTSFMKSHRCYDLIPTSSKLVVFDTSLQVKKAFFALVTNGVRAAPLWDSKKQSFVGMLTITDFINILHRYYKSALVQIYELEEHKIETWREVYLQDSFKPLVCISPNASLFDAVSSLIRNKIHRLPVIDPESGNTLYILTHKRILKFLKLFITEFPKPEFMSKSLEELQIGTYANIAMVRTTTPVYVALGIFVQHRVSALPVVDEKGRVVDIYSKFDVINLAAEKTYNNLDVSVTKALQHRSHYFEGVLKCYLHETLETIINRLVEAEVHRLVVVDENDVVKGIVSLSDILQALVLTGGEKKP
Test: Test Example 2: AMPK activator evaluation, mobility-shift kinase assay after CaMKK2 phosphorylation
Assay type: biochemical
Settings: for EC150: compound concentration showing 150% relative to the control (100%); for Emax: maximum rate of increase in activity within the measurement range, control = 100%
Description: The full length cDNAs of human AMPK β2 (NM_005399.3) and human AMPK α2 (NM_006252.3) were inserted into the MCS1 and MCS2 of the pETDuet-1 vector to prepare a human AMPK β2 and human AMPK α2 (6× His tag at the 5′ terminus) expressing plasmid. The plasmid was cotransfected with an expression plasmid, in which the full length cDNA of human AMPK γ1 (NM_002733.3) had been inserted into pET28b(+), into BL21 CodonPlus (DE3)-RIL to obtain an expression strain. The expression strain was cultured in TB medium, followed by induction with 0.5 mM IPTG, and cultured at 25° C. for 3 hours and then harvested. After ultrasonication, supernatant was collected and applied to Histrap FF column (GE) and RESOUECE Q column (GE) to prepare 12.5 mg of purified sample containing three types of subunit from 1.8 L of broth.
An expression vector, in which the full length cDNA of human CAMKK β (NM_172226.1) had been inserted into pGEX-6P-3, was transfected into BL21 Star (DE3). The expression strain was cultured in TB medium, followed by induction with 0.5 mM IPTG, and cultured at 25° C. for 3 hours and then harvested. After ultrasonication, supernatant was collected and applied to GSTrap FF column (GE) to prepare 14 mg of GST-fused CAMKK β from 720 ml of broth.
Thus, phosphorylation treatment was carried out as pretreatment.
Human AMPK α2β2γ1 in an amount to give a conversion rate of approximately 10% by reaction for 2 hours, and CaMKK2 in an amount capable of sufficiently imparting activity to AMPK for one hour were mixed in a buffer solution consisting of a 50 mM HEPES-NaOH buffer solution (pH 7.0), 100 mM NaCl, 5 mM magnesium chloride, 0.1% bovine serum albumin, 0.2 mM sodium orthovanadate(V), 1 mM ethylene glycol-bis(2-aminoethyl ether)-N,N,N′,N′-tetraacetic acid (EGTA), 5 mM disodium β-glycerophosphate, 1 mM dithiothreitol and 0.2 mM ATP, and the obtained liquid was left to stand at 25° C. for 1 to 1.5 hours to sufficiently phosphorylate AMPK.
After that, to the enzyme liquid, which had been subjected to phosphorylation treatment, a compound dissolved in DMSO was added so as to have a 1% DMSO concentration. The obtained liquid was left to stand for 10 minutes.
To the liquid, a substrate solution consisting of a 50 mM HEPES-NaOH buffer solution (pH 7.0), 100 mM NaCl, 10 mM magnesium chloride, 0.1% bovine serum albumin, 0.2 mM sodium orthovanadate(V), 1 mM ethylene glycol-bis(2-aminoethyl ether)-N,N,N′,N′-tetraacetic acid (EGTA), 5 mM disodium β-glycerophosphate, 2 mM dithiothreitol, 0.4 mM ATP and 3 μM FL-Peptide 7 (manufactured by Caliper Life Sciences, Inc.) was added in equal amount (10 μl in total). The obtained liquid was allowed to react at 25° C. for 2 hours, and 10 μl of 20 mM EDTA was then added thereto to stop the reaction.
To detect phosphorylated fluorescent substrates, the reaction liquid was applied to a measuring device, LabChip EZ Reader II manufactured by Caliper Life Science, Inc., for detecting fluorescence by using differences in mobility due to differences in charge. The setting conditions for the device were pressure, −1.5 PSI; upstream voltage, −2250 V; downstream voltage, −400 V; post sample buffer sip time, 40 seconds; final delay, 120 seconds; and peak order, Product First.
A conversion rate was calculated from the peak heights of the resulting substrate and product. The conversion rate when not containing a compound was used as a control, and a concentration dependent curve was made by plotting the rate of increase in activity to the control at each concentration of a compound.

| Structure (SMILES) | EC150 [nM] | Emax [%] |
| --- | --- | --- |
| O[C@@H]1CO[C@H]2[C@@H]1OC[C@H]2Oc1nc2nc(NCc3c(F)cccc3F)c(Cl)cc2[nH]1 [Compound I-1-1] | 29 | 484 |
| COCCOc1cc(F)c(CSc2nc3nc(O[C@@H]4CO[C@H]5[C@@H]4OC[C@H]5O)[nH]c3cc2Cl)c(F)c1 [Compound I-1-4] | 40 | 766 |
| Cc1cccc(F)c1CNc1nc2nc(O[C@@H]3CO[C@H]4[C@@H]3OC[C@H]4O)[nH]c2cc1Cl [Compound I-1-6] | 21 | 496 |
| O[C@@H]1CO[C@H]2[C@@H]1OC[C@H]2Oc1nc2nc(NC3CCc4ccccc43)c(Cl)cc2[nH]1 (stereo partly drawn) [Compound I-1-8] | 67 | 617 |
| O[C@@H]1CO[C@H]2[C@@H]1OC[C@H]2Oc1nc2nc(NCc3c(F)cccc3F)c(F)cc2[nH]1 [Compound I-1-10] | 740 | 406 |
| O[C@@H]1CO[C@H]2[C@@H]1OC[C@H]2Oc1nc2nc(NC3COc4ccccc43)c(Cl)cc2[nH]1 (stereo partly drawn) [Compound I-1-11] | 170 | 512 |
| COCCOc1cc(F)c(CNc2nc3nc(O[C@@H]4CO[C@H]5[C@@H]4OC[C@H]5O)[nH]c3cc2Cl)c(F)c1 [Compound I-1-13] | 17 | 838 |
| O[C@@H]1CO[C@H]2[C@@H]1OC[C@H]2Oc1nc2nc(NCc3c(F)cc(Cl)cc3F)c(Cl)cc2[nH]1 [Compound I-1-14] | 42 | 750 |
| OCCOc1cc(F)c(CNc2nc3nc(O[C@@H]4CO[C@H]5[C@@H]4OC[C@H]5O)[nH]c3cc2Cl)c(F)c1 [Compound I-1-15] | 5.8 | 894 |
| OCCCOc1cc(F)c(CNc2nc3nc(O[C@@H]4CO[C@H]5[C@@H]4OC[C@H]5O)[nH]c3cc2Cl)c(F)c1 [Compound I-1-36] | 16 | 475 |
| COCCOc1cc(F)c2c(c1)CCC2Nc1nc2nc(O[C@@H]3CO[C@H]4[C@@H]3OC[C@H]4O)[nH]c2cc1Cl (stereo partly drawn) [Compound I-1-38] | 1.2 | 568 |
| Cn1cc(-c2cc(F)c(CNc3nc4nc(O[C@@H]5CO[C@H]6[C@@H]5OC[C@H]6O)[nH]c4cc3Cl)c(F)c2)cn1 [Compound I-1-39] | 26 | 506 |
| O[C@@H]1CO[C@H]2[C@@H]1OC[C@H]2Oc1nc2nc(NCc3cccs3)c(Cl)cc2[nH]1 [Compound I-1-52] | 100 | 407 |
| O=C(Nc1nc2nc(O[C@@H]3CO[C@H]4[C@@H]3OC[C@H]4O)[nH]c2cc1Cl)c1ccc2ccccc2c1 [Compound I-1-80] | 880 | 397 |
| O[C@@H]1CO[C@H]2[C@@H]1OC[C@H]2Oc1nc2nc(NCc3ccccc3F)c(Cl)cc2[nH]1 [Compound I-1-109] | 48 | 499 |
| O[C@@H]1CO[C@H]2[C@@H]1OC[C@H]2Oc1nc2nc(NC3CCc4cccnc43)c(Cl)cc2[nH]1 (stereo partly drawn) [Compound I-1-116] | 94 | 450 |
| OCCO[C@@H]1CO[C@H]2[C@@H]1OC[C@H]2Oc1nc2nc(NCc3c(F)cccc3F)c(Cl)cc2[nH]1 [Compound I-1-119] | 84 | 432 |
| CC(=O)NC(C)(C)c1ccc(Oc2nc3nc(NCc4c(F)cccc4F)c(Cl)cc3[nH]2)cn1 [Compound I-1-126] | 170 | 332 |

| Structure (SMILES) | EC150 [nM] | Emax [%] |
| --- | --- | --- |
| Oc1cccc(F)c1CNc1nc2nc(O[C@@H]3CO[C@H]4[C@@H]3OC[C@H]4O)[nH]c2cc1Cl [Compound I-2-1] | 30 | 588 |
| OC[C@@H]1C[C@H](Oc2nc3nc(NCc4c(F)cccc4F)c(Cl)cc3[nH]2)CO1 [Compound I-2-19] | 74 | 506 |
| O[C@@H]1CO[C@H]2[C@@H]1OC[C@H]2Oc1nc2nc(NCc3c(F)cccc3F)c(C(F)(F)F)cc2[nH]1 [Compound I-2-22] | 130 | 480 |
| OCCn1ccc(CNc2nc3nc(O[C@@H]4CO[C@H]5[C@@H]4OC[C@H]5O)[nH]c3cc2Cl)n1 [Compound I-2-62] | 94 | 388 |
| CCc1ccc(CNc2nc3nc(O[C@@H]4CO[C@H]5[C@@H]4OC[C@H]5O)[nH]c3cc2Cl)s1 [Compound I-2-75] | 26 | 542 |
| CS(=O)(=O)CCCOc1cc(F)c(CNc2nc3nc(O[C@@H]4CO[C@H]5[C@@H]4OC[C@H]5O)[nH]c3cc2Cl)c(F)c1 [Compound I-2-91] | 5.4 | 532 |
| CS(=O)(=O)NCCOc1cc(F)c(CNc2nc3nc(O[C@@H]4CO[C@H]5[C@@H]4OC[C@H]5O)[nH]c3cc2Cl)c(F)c1 [Compound I-2-93] | 9.9 | 602 |
| O[C@@H]1CO[C@H]2[C@@H]1OC[C@H]2Oc1nc2nc(NCc3c(F)cc(OCC4CNCCO4)cc3F)c(Cl)cc2[nH]1 (stereo partly drawn) [Compound I-2-119] | 13 | 581 |
| O=C(c1cc(F)c2c(c1)CCC2Nc1nc2nc(O[C@@H]3CO[C@H]4[C@@H]3OC[C@H]4O)[nH]c2cc1Cl)N1CCCCC1 (stereo partly drawn) [Compound I-2-147] | 4.5 | 532 |
| O=C(c1cc(F)c2c(c1)CCC2Nc1nc2nc(O[C@@H]3CO[C@H]4[C@@H]3OC[C@H]4O)[nH]c2cc1Cl)N1CC[C@H](F)C1 (stereo partly drawn) [Compound I-2-153] | 5.2 | 546 |
| COCCOc1cc(F)c2c(c1)OCC2Nc1nc2nc(O[C@@H]3CO[C@H]4[C@@H]3OC[C@H]4O)[nH]c2cc1Cl (stereo partly drawn) [Compound I-2-185] | 6 | 569 |
| O=C1CCCN1CCOc1cc(F)c(CNc2nc3nc(O[C@@H]4CO[C@H]5[C@@H]4OC[C@H]5O)[nH]c3cc2Cl)c(F)c1 [Compound I-2-188] | 15 | 603 |
| CN1CCC(Oc2cc(F)c(CNc3nc4nc(O[C@@H]5CO[C@H]6[C@@H]5OC[C@H]6O)[nH]c4cc3Cl)c(F)c2)CC1 [Compound I-2-192] | 7.6 | 568 |
| O[C@@H]1CO[C@H]2[C@@H]1OC[C@H]2Oc1nc2nc(NCc3c(F)cc(C4=CCNCC4)cc3F)c(Cl)cc2[nH]1 [Compound I-2-209] | 22 | 558 |
| Cn1cc(-c2cc(F)c(CNc3nc4nc(O[C@@H]5CO[C@H]6[C@@H]5OC[C@H]6O)[nH]c4cc3Cl)c(F)c2)ccc1=O [Compound I-2-217] | 47 | 637 |
| COCCOc1cc(F)c2c(c1)CC[C@@H]2Nc1nc2nc(O[C@@H]3CO[C@H]4[C@@H]3OC[C@H]4O)[nH]c2cc1Cl [Compound I-2-220] | 1.1 | 669 |
| CN(C)CCCc1cc(F)c(CNc2nc3nc(O[C@@H]4CO[C@H]5[C@@H]4OC[C@H]5O)[nH]c3cc2Cl)c(F)c1 [Compound I-2-222] | 16 | 532 |
| CCOCCOc1cc(F)c2c(c1)CCC2Nc1nc2nc(O[C@@H]3CO[C@H]4[C@@H]3OC[C@H]4O)[nH]c2cc1Cl (stereo partly drawn) [Compound I-2-223] | 2.8 | 649 |
